According to patent US20230051797A1, “METHOD FOR RECOVERING EXTRACELLULAR VESICLE AND BLOOD COLLECTION VESSEL” (FUJIREBIO INC., priority 2019, published 2023):
Like-named read-outs stand apart in the source and are kept apart here.

Legend:
human whole blood = experiment: Confirmation of presence and absence of hemolysis in whole blood with surfactant (Example 2)
Procedure: A surfactant was added to human whole blood for confirmation of presence and absence of hemolysis. […] Octyltrimethylammonium bromide (C8TAB) and hexadecyltrimethylammonium chloride (C16TAC) were used as cationic surfactants. N-decanoyl sarcosine sodium (N-DSS (NDS)) and N-lauroyl sarcosine sodium hydrate (NLS) were used as anionic surfactants. As amphoteric surfactants, CHAPS and N-dodecyl-N,N-dimethyl-3-ammonio-l-propanesulfonate (C12APS) were used.
More specifically, 900 μL of whole blood obtained after blood collection was added to the 5 mL polypropylene test tube (manufactured by nunc) containing 100 μL of D-PBS (-) supplemented with the surfactant. The surfactant was added to achieve a final concentration of 0.5 W/V % after mixed with whole blood. After the addition of whole blood, the test tubes were inverted for mixing, and allowed to stand at room temperature for 30 minutes. After centrifugation (3000 rpm, 5 minutes), the supernatant was collected for visual check of the presence and absence of hemolysis.

[1] = system: CD9, the surface marker protein of the extracellular vesicle (EV); experiment: Recovery of EV from whole blood with chelating agent (CD9 measured in supernatant, Example 1); set-up: species or system human; conditions: chelating agent final concentration 15 mM in whole blood
Procedure: The chelating agent was added to human whole blood. After centrifugation, CD9 in the supernatant was measured. […]

[2] = system: CD9, the surface marker protein of extracellular vesicle (EV); experiment: Recovery of EV from whole blood supplemented with chelating agent and surfactant (CD9 in supernatant, Example 3); set-up: species or system human; conditions: chelating agent 60 mM
Procedure: To 0.01 g/mL of magnetic particles in 10 mM MES buffer (pH 5.0), 0.2 mg/mL of a mouse anti-CD9 monoclonal antibody (Fujirebio Inc.) that recognizes an extracellular vesicle (EV) surface marker CD9, was added. Then, the resulting solution was gently stirred at 25° C. for one hour for incubation. After the reaction, the magnetic particles were magnetically collected and washed with a washing solution (50 mM Tris buffer, 150 mM NaCl2, 2.0% BSA, pH 7.2) in order to obtain anti-CD9 antibody solid-phased particles. Each antibody solid-phased particle was suspended in a particle diluent (50 mM Tris buffer, 1 mM EDTA-2Na, 0.1% NaN3, 2.0% BSA, pH 7.2) in order to obtain each antibody solid-phased particle solution. […]
The chelating agent and the surfactant were added to human whole blood. CD9 was measured in the supernatant after centrifugation. […]

[3] = system: CD9, the surface marker protein of extracellular vesicle (EV); experiment: Study of action of chelating agent and surfactant on whole blood or on immune reaction (CD9, Example 5); set-up: species or system human; conditions: for vs. no EGTA (%): 100 mM EGTA in particle solution vs none
Procedure: (§1) To 0.01 g/mL of magnetic particles in 10 mM MES buffer (pH 5.0), 0.2 mg/mL of a mouse anti-CD9 monoclonal antibody (Fujirebio Inc.) that recognizes an extracellular vesicle (EV) surface marker CD9, was added. Then, the resulting solution was gently stirred at 25° C. for one hour for incubation. After the reaction, the magnetic particles were magnetically collected and washed with a washing solution (50 mM Tris buffer, 150 mM NaCl2, 2.0% BSA, pH 7.2) in order to obtain anti-CD9 antibody solid-phased particles. Each antibody solid-phased particle was suspended in a particle diluent (50 mM Tris buffer, 1 mM EDTA-2Na, 0.1% NaN3, 2.0% BSA, pH 7.2) in order to obtain each antibody solid-phased particle solution.
(§2) Desalted alkaline phosphatase (ALP) was mixed with N-(4-maleimidobutyryloxy)-succinimide (GMBS) (final concentration 0.3 mg/mL) and the resulting solution was allowed to stand at 30° C. for one hour for maleimidation of ALP. Next, in a coupling reactant solution (100 mM phosphate buffer, 1 mM EDTA-2Na, pH 6.3), Fab's of mouse anti-CD9 monoclonal antibody was mixed with maleimidized ALP at a molar ratio of 1: 1, and reacted at 25° C. for one hour. The reactant solution was subjected to purification using Superdex 200 column chromatography (General Electric Company) to obtain ALP-labeled anti-CD9 antibody. Each ALP-labeled antibody was suspended in a labeled antibody diluent (50 mM MES buffer, 150 mM NaCl2, 0.3 mM ZnCl2, 1 mM MgCl2, 0.1% NaN3, 2.0% BSA, pH 6.8) to obtain each labeled antibody solution.
20 μL of the sample for measurement and 50 μL of the anti-CD9 antibody solid-phased particle solution were dispensed into the reaction vessel and stirred. Then, the resulting solution was incubated at 37° C. for 8 minutes (primary reaction), and B/F separation and washing were carried out. 50 μL of the ALP-labeled antibody was dispensed into the reaction vessel, the resulting solution was stirred and then incubated at 37° C. for 8 minutes, and B/F separation and washing were carried out. Then, 200 μL of Lumipulse (registered trademark) substrate solution (Fujirebio Inc.) containing 3-(2′-spiroadamantane)-4-methoxy-4-(3″-phosphoryloxy)phenyl-1,2-dioxetane disodium salt (AMPPD) serving as a chemiluminescent substance was dispensed into the reaction chamber. The resulting solution was stirred and then incubated at 37° C. for 4 minutes for the measurement of luminescence intensity using luminometer. A count value was obtained as the measured value. The luminescence intensity was measured using a fully automated chemiluminescent enzyme immunoassay system (Lumipulse L2400 (Fujirebio Inc.)). […]
In addition, CD9 was measured also for a solution obtained by adding 100 mM EGTA to the CD9 antibody solid-phased particle solution. […]

[4] = system: CD9, the surface marker protein of extracellular vesicle (EV); experiment: Study of surfactant type in combination with EGTA (CD9 in supernatant, Example 6); set-up: species or system human; conditions: EGTA 200 mM, no surfactant (D-PBS(-))
Procedure: as §1, with “solution. […]” for “solution.”
20 μL of the sample for measurement and 50 μL of the anti-CD9 antibody solid-phased particle solution were dispensed into the reaction vessel and stirred. […] The resulting solution was stirred and then incubated at 37° C. for 4 minutes for the measurement of luminescence intensity using luminometer. A count value was obtained as the measured value. The luminescence intensity was measured using a fully automated chemiluminescent enzyme immunoassay system (Lumipulse L2400 (Fujirebio Inc.)). […]

[5] = system: CD9, the surface marker protein of extracellular vesicle (EV); experiment: Study of concentrations of chelating agent and surfactant (CD9 in supernatant, Example 4); set-up: species or system human; conditions: Tergitol 15-S-40 0%
Procedure: as §1, §2
20 μL of the sample for measurement and 50 μL of the anti-CD9 antibody solid-phased particle solution were dispensed into the reaction vessel and stirred. Then, the resulting solution was incubated at 37° C. for 8 minutes (primary reaction), and B/F separation and washing were carried out. 50 μL of the ALP-labeled antibody was dispensed into the reaction vessel, the resulting solution was stirred and then incubated at 37° C. for 8 minutes, and B/F separation and washing were carried out. Then, 200 μL of Lumipulse (registered trademark) substrate solution (Fujirebio Inc.) containing 3-(2′-spiroadamantane)-4-methoxy-4-(3″-phosphoryloxy)phenyl-1,2-dioxetane disodium salt (AMPPD) serving as a chemiluminescent substance was dispensed into the reaction chamber. The resulting solution was stirred and then incubated at 37° C. for 4 minutes for the measurement of luminescence intensity using luminometer. A count value was obtained as the measured value. The luminescence intensity was measured using a fully automated chemiluminescent enzyme immunoassay system (Lumipulse L2400 (Fujirebio Inc.)).
Antibodies recognizing the same epitope in CD9 were used as the antibody solid-phased on the magnetic particle and the ALP-labeled antibody. Due to the presence of a plurality of CD9 on a single extracellular vesicle, it is possible to measure for the extracellular vesicle presenting a plurality of CD9 to be indicated as the surface marker rather than free CD9 by means of the sandwich immunoassay in which the antibodies recognizing the same epitope as the solid-phased antibodies were used as the ALP-labeled antibodies.
Various concentrations of the chelating agent and the surfactant were added to human whole blood, for the measurement of CD9 in the supernatant obtained after centrifugation. […]

[6] = surfactant final 0.5 W/V % in whole blood, visual check of supernatant

CCCCCCCCCCCC(=O)N(C)CC(=O)O.O.[Na] [NLS, N-lauroyl sarcosine sodium hydrate]
Hemolysis, Specimen 1 (human whole blood): Hemolysis | Hemolysis, Specimen 2 (human whole blood): Hemolysis

CCCCCCCCCCCC[N+](C)(C)CCCS(=O)(=O)[O-] [C12APS, N-dodecyl-N,N-dimethyl-3-ammonio-l-propanesulfonate]
Hemolysis, Specimen 1 (human whole blood; [6]): Hemolysis | Hemolysis, Specimen 2 (human whole blood; [6]): Hemolysis

O=C(O)CN(CCO)CCN(CC(=O)O)CC(=O)O [HEDTA, hydroxyethyl ethylenediaminetriacetic acid]
vs. non-addition (%) [1]: 963.9%

CCCCCCCCCC(=O)N(C)CC(=O)O.[Na] [N-DSS (NDS), N-decanoyl sarcosine sodium]
Hemolysis, Specimen 1 (human whole blood): Hemolysis | Hemolysis, Specimen 2 (human whole blood): Hemolysis

O=C(O)CN(CCN(CC(=O)O)CC(=O)O)CC(=O)O.[Na].[Na] [EDTA2Na, disodium ethylenediaminetetraacetic acid]
vs. non-addition (%) [1]: 376.6% | vs. No chelating agent and surfactant added (%) [2]: 196.6%

O=C(O)CN(CC(=O)O)CC(=O)O [NTA, nitrilotriacetic acid]
vs. non-addition (%) [1]: 427.7%

CCCCCCCCCCCCCCCC[N+](C)(C)C.[Cl-] [C16TAC, hexadecyltrimethylammonium chloride]
Hemolysis, Specimen 1 (human whole blood; [6]): Hemolysis | Hemolysis, Specimen 2 (human whole blood; [6]): Hemolysis

O=C(O)CN(CCOCCOCCN(CC(=O)O)CC(=O)O)CC(=O)O [EGTA, glycol ether diamine tetraacetic acid]
vs. no EGTA (%) ([3]; blood collection vessel: 200 mM EGTA, 0% Tergitol): 112.9% | vs. no EGTA (%) ([3]; blood collection vessel: nothing added): 71% | vs. non-addition (%) ([3]; blood collection vessel: 200 mM EGTA, 0% Tergitol, particle solution: 100 mM EGTA + 0.5% Tergitol): 843.5% | vs. non-addition (%) ([3]; blood collection vessel: 200 mM EGTA, 0% Tergitol, particle solution: 0.5% Tergitol): 530.5% | vs. non-addition (%) [1]: 215% | vs. non-addition [4]: 366.4 | vs. No chelating agent and surfactant added (%) [2]: 332.6% | CD9 vs. 0 mM EGTA (%) ([5]; EGTA 10 mM): 154% | CD9 vs. 0% Tergitol (%) ([5]; EGTA 50 mM): 294% | CD9 vs. 0 mM EGTA (%) ([5]; EGTA 50 mM): 294% | CD9 vs. 0 mM EGTA (%) ([5]; EGTA 100 mM): 532% | CD9 vs. 0 mM EGTA (%) ([5]; EGTA 200 mM): 721%

C[C@H](CCC(=O)NCCC[N+](C)(C)CCCS(=O)(=O)[O-])[C@H]1CC[C@H]2[C@@H]3[C@H](O)C[C@@H]4C[C@H](O)CC[C@]4(C)[C@H]3C[C@H](O)[C@]12C [CHAPS]
Hemolysis, Specimen 1 (human whole blood; [6]): Hemolysis | Hemolysis, Specimen 2 (human whole blood; [6]): Hemolysis
